Assay results: US6784174B1, “Pyridine and pyrimidine derivatives and their use as inhibitors of cytokine mediated disease” (AstraZeneca AB, priority 1999, dated 2004)

Each molecule was assayed against T1, p38α (Homo sapiens, UniProt Q16539) (assay: In vitro enzyme assay, p38 kinase (p38α isoform)).
T1 construct: c-myc (N); 6His (N); made in house; host or cells: E. coli (PET vectors)
Format: biochemical
Experimental: The ability of compounds of the invention to inhibit the enzyme p38 kinase was assessed. Activity of particular test compounds against each of the p38α and p38β isoforms of the enzyme was determined.
Human recombinant MKK6 (GenBank Accesion Number G1209672) was isolated from Image clone 45578 (Genomics, 1996, 33, 151) and utilised to produce protein in the form of a GST fusion protein in a pGEX vector using analogous procedures to those disclosed by J. Han et al., Journal of Biological Chemistry, 1996, 271, 2886-2891. p38α (GenBank Accession Number G529039) and p38β (GenBank Accession Number G1469305) were isolated by PCR amplification of human lymphoblastoid cDNA (GenBank Accession Number GM1416) and human foetal brain cDNA [synthesised from mRNA (Clontech, catalogue no. 6525-1) using a Gibco superscript cDNA synthesis kit] respectively using oligonucleotides designed for the 5′ and 3′ ends of the human p38α and p38β genes using analogous procedures to those described by J. Han et al., Biochimica et Biophysica Acta, 1995, 126, 224-227 and Y. Jiang et al., Journal of Biological Chemistry, 1996, 271, 17920-17926.
Both p38 protein isoforms were expressed in e coli in PET vectors. Human recombinant p38α and p38β isoforms were produced as 5′ c-myc, 6His tagged proteins. Both MKK6 and the p38 proteins were purified using standard protocols: the GST MKK6 was purified using a glutathione sepharose column and the p38 proteins were purified using nickel chelate columns.
The p38 enzymes were activated prior to use by incubation with MKK6 for 3 hours at 30° C. The unactivated coli-expressed MKK6 retained sufficient activity to fully activate both isoforms of p38. The activation incubate comprised p38α (10 μl of 10 mg/ml) or p38β (10 μl of 5 mg/ml) together with MKK6 (10 μl of 1 mg/ml), ‘Kinase buffer’ [100 μl; pH 7.4 buffer comprising Tris (50 mM), EGTA (0.1 mM), sodium orthovanadate (0.1 mM) and β-mercaptoethanol (0.1%)] and MgATP (30 μl of 50 mM Mg(OCOCH3)2 and 0.5 mM ATP). This produced enough activated p38 enzyme for 3 Microtiter plates.
Test compounds were solubilised in DMSO and 10 μl of a 1:10 diluted sample in ‘Kinase Buffer’ was added to a well in a Microtiter plate. […] The precipitated protein was phosphorylated by p38 kinase and test compounds were assessed for their ability to inhibit this phosphorylation. The plates were filtered using a Canberra Packard Unifilter and washed with 2% TCA, dried overnight and counted on a Top Count scintillation counter.
Test compounds were tested initially at a single dose and active compounds were retested to allow IC50 values to be determined.

T1 sequence (Q16539 whole entry, canonical isoform): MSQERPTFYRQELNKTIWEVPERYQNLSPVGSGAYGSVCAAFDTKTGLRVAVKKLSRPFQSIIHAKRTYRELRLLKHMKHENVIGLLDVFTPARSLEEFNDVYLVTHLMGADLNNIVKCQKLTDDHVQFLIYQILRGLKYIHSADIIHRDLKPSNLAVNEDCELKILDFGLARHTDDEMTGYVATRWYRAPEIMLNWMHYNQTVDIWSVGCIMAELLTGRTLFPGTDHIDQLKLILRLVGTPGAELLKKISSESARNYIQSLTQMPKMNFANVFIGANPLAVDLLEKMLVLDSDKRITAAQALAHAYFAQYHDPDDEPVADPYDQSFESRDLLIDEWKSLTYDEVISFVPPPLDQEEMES

Row | Structure (SMILES) | IC50 [nM]
1 | Cc1ccc(NC(=O)c2ccnc(N3CCOCC3)c2)cc1Nc1ncnc2ccsc12 [Example 1, 4-[2-Methyl-5-(2-morpholinopyridine-4-carboxamido)anilino]thieno[3,2-d]pyrimidine] | 60
2 | Cc1ccc(NC(=O)c2ccnc(N3CCOCC3)c2)cc1Nc1ncnc2sccc12 [3(2)] | 70
3 | Cc1ccc(NC(=O)c2ccnc(N3CCOCC3)c2)cc1Nc1ncnc2scc(C)c12 [Example 2, 4-[2-Methyl-5-(2-morpholinopyridine-4-carboxamido)anilino]-5-methylthieno[2,3-d]pyrimidine] | 340
4 | Cc1ccc(NC(=O)c2ccnc(N3CCOCC3)c2)cc1Nc1ncnc2c(C)csc12 [3(1)] | 40
